For 40 compounds, IC50 and inhibition results are on record in patent publication US10111875B2, “Pyrrolopyrimidine compounds and uses thereof” (HUTCHISON MEDIPHARMA LIMITED, priority 2010, dated 2018).

Each structure is given as a SMILES string. Read-outs that look alike come from different tables or passages of the source.

Assay [1] relates to IL-6-induced STAT3 phosphorylation, HepG2 cells. Briefly: IL-6-induced STAT3 phosphorylation in HepG2 cells. It counts as cell-based, human. As to conditions: IL-6 stimulation, read-out: pSTAT3 (IC50). As to the method:
For the determination of IL-6-induced STAT3 phosphorylation, HepG2 cells (SIBS) are seeded in 96 well plates at […] cells per well in Serum Free DMEM media overnight and incubated in the presence or absence of various concentrations of diluted compound for 30 min at 37° C., 5% CO2. Cells were stimulated by adding 10 ng/ml human recombinant IL-6 to each well for 15 minutes at 37° C., 5% CO2. Cells are then fixed in 2% paraformaldehyde for 45 minutes at room temperature and incubated in ice-cold methanol for 30 minutes. After washing in PBS, cells are incubated with rabbit anti-phospho-STAT3 (Y705) (Cell Signaling Technologies, 1:1000 in antibody dilution solution) primary antibody overnight at 4° C. Goat anti-rabbit IgG Alexa 488 (Invitrogen, 1:1,000 dilution in PBS) secondary antibody is added for 90 minutes prior to PBS washes. Cells are counted following incubation in a 7.5 uM propidium iodide, 100 μg/ml RNaseA, PBS solution for 60 minutes in the dark. Plates are read on an Acumen X3 instrument (TPP Labtech).
(§1) Percent inhibition is calculated using the following formula: Inhibition (%)=100−((inhibitor treatment−cell)/(stimulator−cell))×100
(§2) where: Inhibitor treatment represents cell activation percentage of wells treated by both compound and stimulator (IL-6, IL-3 or IL-4); Cell represents the cell activation percentage of wells treated by neither compound nor stimulator (IL-6, IL-3 or IL-4). Stimulator represents the cell activation percentage of wells treated by stimulator (IL-6, IL-3 or IL-4) only.

Assay [2] deals with IL-3-induced STAT5 phosphorylation, TF-1 cells. Briefly: IL-3-induced STAT5 phosphorylation in TF-1 cells. It counts as cell-based, human. As to conditions: IL-3 stimulation, read-out: pSTAT5 (IC50). On the procedure:
For the determination of IL-3-induced STAT5 phosphorylation, TF-1 cells (ATCC) are plated in 96 well plates at 1×10^4 cells per well in 10% FBS RPMI-1640 media at 37° C., 5% CO2 for 3 hours. Cells were incubated in the presence or absence of various concentrations of diluted compound for 30 min at 37° C., 5% CO2. Cells were stimulated by adding 10 ng/ml human recombinant IL-3 to each well for 30 minutes at 37° C., 5% CO2. Cells are then fixed in 2% paraformaldehyde for 45 minutes at room temperature and incubated in ice-cold methanol for 30 minutes. After washing in PBS, cells are incubated with rabbit anti-phospho-STAT5 (Y694) (Cell Signaling Technologies, 1:1000 in antibody dilution solution) primary antibody overnight at 4° C. Goat anti-rabbit IgG Alexa 488 (Invitrogen, 1:1,000 dilution in PBS) secondary antibody is added for 90 minutes prior to PBS washes. Cells are counted following incubation in a 7.5 uM propidium iodide, 100 µg/ml RNaseA, PBS solution for 60 minutes in the dark. Plates are read on an Acumen X3 instrument (TPP Labtech).
as §1, §2

Assay [3] has as its target Recombinant human JAK1 catalytic domain (Homo sapiens (Human), UniProt P23458). Briefly: JAK1 kinase assay (Z'-LYTE Tyr 6 Peptide). It counts as biochemical. As to conditions: read-out: inhibition percentage (IR %). As to the method: JAK1/2/3 kinase assay are performed in vitro using Kit-Tyr 6 Peptide (Invitrogen, Cat. No. PV4122). TYK2 kinase assay are performed in vitro using Z′-LYTE™ Kinase Assay Kit-Tyr 3 Peptide (Invitrogen, Cat. No. PV3192). […] All compounds are initially tested at 8 different concentrations (1 μM down to 0.0003 μM) using a 1:3 serial dilution scheme.

The mark [4] stands for this setting: JAK1 kinase assay, 0.3 uM concentration.

Sequence of Recombinant human JAK1 catalytic domain (P23458 875-1153): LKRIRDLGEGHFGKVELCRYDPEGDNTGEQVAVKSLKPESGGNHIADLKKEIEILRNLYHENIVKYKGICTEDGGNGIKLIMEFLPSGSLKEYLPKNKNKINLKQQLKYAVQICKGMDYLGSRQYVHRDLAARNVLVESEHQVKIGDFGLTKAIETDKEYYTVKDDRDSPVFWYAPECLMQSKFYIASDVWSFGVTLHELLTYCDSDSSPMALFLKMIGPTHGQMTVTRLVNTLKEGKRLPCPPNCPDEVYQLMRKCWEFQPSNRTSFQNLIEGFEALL

Usually IC50 stands for the concentration that inhibits the measured activity by half. Consider `CN(c1ccc(C(=O)Nc2nccs2)cn1)[C@@H]1CCN(c2ncnc3[nH]ccc23)C1` [Compound 199], for which the IC50 is 50 nM in assay [1] and 7550 nM in assay [2].
A word on the inhibition: it is the change of the read-out against control, counted positive when it falls. On to `CN(c1ccc(C#N)c(F)c1)[C@@H]1CCN(c2ncnc3[nH]ccc23)C1` [Compound 105], for which the inhibition at 0.3 µM in assay [3] (setting [4]) is 50 to 100%. Also, the IC50 worked out at 9 nM in assay [1] (Homo sapiens) and 1680 nM in assay [2] (Homo sapiens).
For the compound `CN(c1nc(Cl)nc2ccccc12)[C@@H]1CCN(c2ncnc3[nH]ccc23)C1` [Compound 79], the inhibition at 0.3 µM in assay [3] (setting [4]) fell in the range of 50 to 100%.
As for `CN(c1ccc(S(=O)(=O)N2CCOCC2)cn1)[C@@H]1CCN(c2ncnc3[nH]ccc23)C1` [Compound 252], in assay [3] (setting [4]), the inhibition at 0.3 µM lay within 50 to 100%.
Same read-out and setting: for `CN(C)CCNS(=O)(=O)c1ccc(N(C)[C@@H]2CCN(c3ncnc4[nH]ccc34)C2)nc1` [Compound 248] the value was 50 to 100%; for `CN(C(=O)CCc1c(Cl)cccc1Cl)[C@@H]1CCN(c2ncnc3[nH]ccc23)C1` [Compound 21], 50 to 100%.
The same measure, in the same setting: then `CNS(=O)(=O)c1ccc(N(C)[C@@H]2CCN(c3ncnc4[nH]ccc34)C2)nc1` [Compound 239], with 50 to 100%; and `C[C@@H](O)CNS(=O)(=O)c1ccc(N(C)[C@@H]2CCN(c3ncnc4[nH]ccc34)C2)nc1` [Compound 244], with 50 to 100%.
The same measure, in the same setting: for `Cc1cc(N(C)[C@@H]2CCN(c3ncnc4[nH]ccc34)C2)ncc1C#N` [Compound 157] the value was 50 to 100%.
Take `C#CCN(c1ccc(C#N)cc1F)[C@@H]1CCN(c2ncnc3[nH]ccc23)C1` [Compound 130]: the inhibition at 0.3 µM in assay [3] (setting [4]) fell in the range of 20 to 50%.
Same read-out and setting: then `CN(c1ncccc1C#N)[C@@H]1CCN(c2ncnc3[nH]ccc23)C1` [Compound 159], with 50 to 100%; and `CN([C@@H]1CCN(c2ncnc3[nH]ccc23)C1)S(=O)(=O)C1CC1` [Compound 57], with 20 to 50%; and `Cc1cc(N(C)[C@@H]2CCN(c3ncnc4[nH]ccc34)C2)nc(Cl)c1C#N` [Compound 72], with 50 to 100%.
On the same count and under the same terms, for `CN(c1cccc(C#N)c1)[C@@H]1CCN(c2ncnc3[nH]ccc23)C1` [Compound 119, (R)-3-((1-(7H-pyrrolo[2,3-d]pyrimidin-4-yl)pyrrolidin-3-yl)(methyl)amino)benzonitrile] the value was 50 to 100%; for `CN(c1cnc(NCCO)cn1)[C@@H]1CCN(c2ncnc3[nH]ccc23)C1` [Compound 135], 20 to 50%; for `CN(C(=O)Nc1ccc(Cl)cc1)[C@@H]1CCN(c2ncnc3[nH]ccc23)C1` [Compound 33], 50 to 100%.
With `CN(c1c(F)cc(C#N)cc1F)[C@@H]1CCN(c2ncnc3[nH]ccc23)C1` [Compound 108], the inhibition at 0.3 µM in assay [3] (setting [4]) was 50 to 100%.
Consider `CN(c1ccc(C(=O)O)cn1)[C@@H]1CCN(c2ncnc3[nH]ccc23)C1` [Compound 170, (R)-6-((1-(7H-pyrrolo[2,3-d]pyrimidin-4-yl)pyrrolidin-3-yl)(methyl)amino)nicotinic acid], for which the inhibition at 0.3 µM in assay [3] was 50 to 100%.
As for `CC(C)S(=O)(=O)Nc1ccc(N(C)[C@@H]2CCN(c3ncnc4[nH]ccc34)C2)nc1` [Compound 218], the inhibition at 0.3 µM in assay [3] (setting [4]) lay within 50 to 100%.
For the compound `CN(c1ccc(NS(=O)(=O)Cc2cccc(Cl)c2)cn1)[C@@H]1CCN(c2ncnc3[nH]ccc23)C1` [Compound 224], the inhibition at 0.3 µM in assay [3] (setting [4]) lay in the range of 50 to 100%.
The same measure, in the same setting: then `CN(c1ccc(S(=O)(=O)NC[C@@H]2CCCO2)cn1)[C@@H]1CCN(c2ncnc3[nH]ccc23)C1` [Compound 257], with 20 to 50%; and `CN(C(=O)N[C@@H]1c2ccccc2C[C@H]1O)[C@@H]1CCN(c2ncnc3[nH]ccc23)C1` [Compound 29, 1-((R)-1-(7H-pyrrolo[2,3-d]pyrimidin-4-yl)pyrrolidin-3-yl)-3-((1R,2R)-2-hydroxy-2,3-dihydro-1H-inden-1-yl)-1-methylurea], with 50 to 100%; and `CN(c1cc(F)c(C#N)c(F)c1)[C@@H]1CCN(c2ncnc3[nH]ccc23)C1` [Compound 106], with 50 to 100%.
As for `C#CCN(c1ccc(S(C)(=O)=O)cn1)[C@@H]1CCN(c2ncnc3[nH]ccc23)C1` [Compound 58], in assay [3] (setting [4]), the inhibition at 0.3 µM was 20 to 50%.
The same measure, in the same setting: for `CN(c1ncc(C#N)cc1F)[C@@H]1CCN(c2ncnc3[nH]ccc23)C1` [Compound 158] the value was 50 to 100%; for `CN(c1ccc(S(=O)(=O)NC2c3ccccc3C[C@H]2O)cn1)[C@@H]1CCN(c2ncnc3[nH]ccc23)C1` (stereo partly shown) [Compound 232], 20 to 50%; for `CN(c1ccc(S(=O)(=O)NC(C)(C)C)cn1)[C@@H]1CCN(c2ncnc3[nH]ccc23)C1` [Compound 238], 50 to 100%.
On the same count and under the same terms, for `COc1ccc(NC(=O)c2ccc(N(C)[C@@H]3CCN(c4ncnc5[nH]ccc45)C3)nc2)cc1` [Compound 183] the value was 50 to 100%; for `Cc1ccc(N(C)[C@@H]2CCN(c3ncnc4[nH]ccc34)C2)nc1` [Compound 101], 50 to 100%; for `CN(c1ccc(C#N)c(Cl)n1)[C@@H]1CCN(c2ncnc3[nH]ccc23)C1` [Compound 90], 50 to 100%.
Same read-out and setting: then `CN(c1ccc(C(=O)Nc2ccc(Cl)cc2)cn1)[C@@H]1CCN(c2ncnc3[nH]ccc23)C1` [Compound 193], with 20 to 50%; and `CN(c1ccc(C(=O)N[C@@H](CO)c2ccccc2)cc1F)[C@@H]1CCN(c2ncnc3[nH]ccc23)C1` [Compound 179], with 50 to 100%; and `CN(c1ncc(C#N)cc1[N+](=O)[O-])[C@@H]1CCN(c2ncnc3[nH]ccc23)C1` [Compound 96], with 50 to 100%.
Take `COC(=O)c1ccc(N(C)[C@@H]2CCN(c3ncnc4[nH]ccc34)C2)nc1` [Compound 168]: the inhibition at 0.3 µM in assay [3] (setting [4]) lay within 50 to 100%.
Take `CN(c1ccc(C#N)c(Cl)c1)[C@@H]1CCN(c2ncnc3[nH]ccc23)C1` [Compound 116]: the inhibition at 0.3 µM in assay [3] was in the range of 20 to 50%.
For the compound `CN(c1ccc(NS(=O)(=O)c2cccs2)cn1)[C@@H]1CCN(c2ncnc3[nH]ccc23)C1` [Compound 214], the inhibition at 0.3 µM in assay [3] (setting [4]) fell in the range of 50 to 100%.
On the same count and under the same terms, for `CN(c1ccc(S(C)(=O)=O)cc1)[C@@H]1CCN(c2ncnc3[nH]ccc23)C1` [Compound 120, (R)—N-methyl-N-(4-(methylsulfonyl)phenyl)-1-(7H-pyrrolo[2,3-d]pyrimidin-4-yl)pyrrolidin-3-amine] the value was 20 to 50%; for `CN(c1ccc(C#N)cc1[N+](=O)[O-])[C@@H]1CCN(c2ncnc3[nH]ccc23)C1` [Compound 107], 50 to 100%; for `CN(c1ccnc(Cl)n1)[C@@H]1CCN(c2ncnc3[nH]ccc23)C1` [Compound 63, (R)—N-(1-(7H-pyrrolo[2,3-d]pyrimidin-4-yl)pyrrolidin-3-yl)-2-chloro-N-methylpyrimidin-4-amine], 50 to 100%.
Same read-out and setting: then `CN(c1ccc(Cl)cn1)[C@@H]1CCN(c2ncnc3[nH]ccc23)C1` [Compound 67], with 50 to 100%.
